Measured values reported in ChEMBL document CHEMBL4043136, “Chiral-pool synthesis of 1,2,4-trisubstituted 1,4-diazepanes as novel σ1 receptor ligands” (Bioorg Med Chem, 2017).
The source made the active and inactive calls. No cut-off for these calls is given here.

Columns and labels:
[1] = biological target: T1, Sigma intracellular receptor 2 (Rattus norvegicus, UniProt Q5U3Y7); assay: Displacement of [3H]-DTG from sigma2 receptor in rat liver membranes in presence of (+)-pentazocine; type: cell membranes, Membrane
T1 sequence (Q5U3Y7 whole entry): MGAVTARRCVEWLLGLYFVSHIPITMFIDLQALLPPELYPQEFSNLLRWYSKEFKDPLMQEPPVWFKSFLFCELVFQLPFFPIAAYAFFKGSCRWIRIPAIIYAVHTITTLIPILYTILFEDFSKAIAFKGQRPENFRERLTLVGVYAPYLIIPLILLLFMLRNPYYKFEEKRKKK

[2] = biological target: Sigma non-opioid intracellular receptor 1 (Cavia porcellus, UniProt Q60492); assay: Displacement of [3H]-pentazocine from sigma1 receptor in guinea pig brain membranes after 120 mins by liquid scintillation counting; type: cell membranes, Membrane
Sequence of Sigma non-opioid intracellular receptor 1 (Q60492 whole entry): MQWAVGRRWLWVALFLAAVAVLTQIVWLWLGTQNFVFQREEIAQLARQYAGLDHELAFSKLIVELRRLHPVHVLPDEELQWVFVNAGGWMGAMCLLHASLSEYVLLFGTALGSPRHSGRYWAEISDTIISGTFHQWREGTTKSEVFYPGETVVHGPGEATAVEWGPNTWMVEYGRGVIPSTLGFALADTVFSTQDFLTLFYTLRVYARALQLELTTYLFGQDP

[3] = biological target: T1, Sigma intracellular receptor 2; assay: Displacement of [3H]-DTG from sigma2 receptor in rat liver membranes after 120 mins by liquid scintillation counting; type: cell membranes, Membrane
[4] = Displacement of [3H]-(+)-MK 801 from PCP binding site of NMDA receptor in pig brain cortex membranes after 120 mins by liquid scintillation spectrometry; type: cell membranes, Sus scrofa
[5] = biological target: C-8 sterol isomerase ERG2 (Saccharomyces cerevisiae S288c) (UniProt P32352); assay: Inhibition of yeast sterol-delta8/7-isomerase at 50 uM
Sequence of C-8 sterol isomerase ERG2 (Saccharomyces cerevisiae S288c) (P32352 whole entry, looked up): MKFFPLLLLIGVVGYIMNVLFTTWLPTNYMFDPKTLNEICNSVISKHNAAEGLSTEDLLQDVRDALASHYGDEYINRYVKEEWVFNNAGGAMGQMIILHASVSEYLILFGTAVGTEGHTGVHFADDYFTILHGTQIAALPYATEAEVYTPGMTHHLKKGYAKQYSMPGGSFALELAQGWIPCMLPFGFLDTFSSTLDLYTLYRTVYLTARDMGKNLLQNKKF

[6] = biological target: C-8 sterol isomerase ERG2 (Saccharomyces cerevisiae S288c) (UniProt P32352); assay: Inhibition of yeast sterol-delta8/7-isomerase assessed as accumulation of cholesta-8-en-3beta-ol at 1 uM
[7] = biological target: C-8 sterol isomerase ERG2 (Saccharomyces cerevisiae S288c) (UniProt P32352); assay: Inhibition of yeast sterol-delta8/7-isomerase assessed as accumulation of cholesta-8-en-3beta-ol at 50 uM
[8] = biological target: C-8 sterol isomerase ERG2 (Saccharomyces cerevisiae S288c) (UniProt P32352); assay: Inhibition of yeast sterol-delta8/7-isomerase assessed as accumulation of cholesta-8,14-dien-3beta-ol at 1 uM
[9] = biological target: C-8 sterol isomerase ERG2 (Saccharomyces cerevisiae S288c) (UniProt P32352); assay: Inhibition of yeast sterol-delta8/7-isomerase assessed as accumulation of cholesta-8,14-dien-3beta-ol at 50 uM
[10] = biological target: C-8 sterol isomerase ERG2 (Saccharomyces cerevisiae S288c) (UniProt P32352); assay: Inhibition of yeast sterol-delta8/7-isomerase assessed as accumulation of cholesta-7-en-3beta-ol at 1 uM
[11] = biological target: C-8 sterol isomerase ERG2 (Saccharomyces cerevisiae S288c) (UniProt P32352); assay: Inhibition of yeast sterol-delta8/7-isomerase assessed as accumulation of cholesta-7-en-3beta-ol at 50 uM
[12] = biological target: C-8 sterol isomerase ERG2 (Saccharomyces cerevisiae S288c) (UniProt P32352); assay: Inhibition of yeast sterol-delta8/7-isomerase assessed as accumulation of cholesta-5,7-dien-3beta-ol at 1 uM
[13] = biological target: C-8 sterol isomerase ERG2 (Saccharomyces cerevisiae S288c) (UniProt P32352); assay: Inhibition of yeast sterol-delta8/7-isomerase assessed as accumulation of cholesta-5,7-dien-3beta-ol at 50 uM
Sus scrofa = species: Sus scrofa; assay: Displacement of [3H]-(+)-MK 801 from PCP binding site of NMDA receptor in pig brain cortex membranes at 1 uM after 120 mins by liquid scintillation spectrometry; type: cell membranes
[14] = biological target: C-8 sterol isomerase ERG2 (Saccharomyces cerevisiae S288c) (UniProt P32352); assay: Inhibition of yeast sterol-delta8/7-isomerase at 1 uM
HL-60 = assay: Inhibition of cholesteriol biosynthesis in human HL60 cells assessed as incorporation of 2-13C-acetate; type: functional, cell-based

| SMILES | Ki [1] [nM] | Ki [2] [nM] | Ki [3] [nM] | IC50 [4] [nM] | inhibition [5] | inhibition [6] | inhibition [7] | inhibition [8] | inhibition [9] | inhibition [10] | inhibition [11] | inhibition [12] | inhibition [13] | inhibition (Sus scrofa) [%] | inhibition [14] | IC50 (HL-60) [nM] |
| --- | --- | --- | --- | --- | --- | --- | --- | --- | --- | --- | --- | --- | --- | --- | --- | --- |
| COc1cccc2c1CCCC2CCCN1CCN(C2CCCCC2)CC1 (stereo unspecified) | 0.34 |  |  |  |  |  |  |  |  |  |  |  |  |  |  |  |
| c1ccc(C[C@@H]2CN(Cc3ccccc3)CCCN2Cc2ccccc2)cc1 |  | 80 | 514 | > 1000 | Active | Active | Active | Active | Active | Active | Active | Active | Active |  |  |  |
| c1ccc(CCN2CCCN(Cc3ccccc3)[C@@H](Cc3ccccc3)C2)cc1 |  | 40 | 426 | > 1000 | Active | Active | Active | Active | Active | Active | Active | Active | Active |  |  |  |
| OCC(c1ccccc1)N1CCCN(Cc2ccccc2)[C@H](Cc2ccccc2)C1 (stereo partly specified) |  | 27 | > 1000 | 1000 |  |  |  |  |  |  |  |  |  | 50 |  |  |
| COc1ccc(CN2CCCN(Cc3ccccc3)[C@H](Cc3ccccc3)C2)cc1 |  | 42 | 426 | > 1000 | Active | Active | inactive | Active | Active | Active | Active | Active | Active |  |  |  |
| c1ccc(C[C@H]2CN(Cc3ccccc3)CCCN2Cc2ccccc2)cc1 |  | 71 | > 1000 | > 1000 | Active | Active | inactive | Active | Active | Active | Active | Active | Active |  |  |  |
| OC(CN1CCCN(Cc2ccccc2)[C@H](Cc2ccccc2)C1)c1ccccc1 (stereo partly specified) |  | 51 | > 1000 | 1000 |  |  |  |  |  |  |  |  |  | 50 |  |  |
| c1ccc2c(c1)CCCC2CCCCN1CCN(C2CCCCC2)CC1 (stereo unspecified) | 14.6 |  |  |  |  |  |  |  |  |  |  |  |  |  |  |  |
| CCCCN1CCCN(Cc2ccccc2)[C@@H](Cc2ccccc2)C1 |  | 3.7 | 238 | > 1000 |  | inactive | inactive | Active | Active | Active | Active | Active | Active |  | Active | 742 |
